Source: article PMC9728921, “Characterization of a KDM5 small molecule inhibitor with antiviral activity against hepatitis B virus” (PLOS ONE, 2022)

Legend:
SIRT-1 = molecular target: T1, SIRT-1 (Homo sapiens, UniProt Q96EB6); assay: SIRT-1 histone deacetylase assay (AlphaLISA); format: biochemical; conditions: enzyme conc. 5 nM
T1 construct: 193-741; purchased BPS
Method: The assay plates were read on an Enspire plate reader (PerkinElmer) using a standard AlphaLISA program.
(§1) Data was analyzed using GraphPad Prism 6.0 (La Jolla, CA). […] IC50 values were calculated as an average of at least two independent experiments.

SETDB1 = molecular target: T2, SETDB1 (Homo sapiens, UniProt Q15047); assay: Histone methyltransferase enzymatic assay, SETDB1; format: biochemical; conditions: enzyme conc. 100 nM
T2 construct: 510-1290
Method: (§2) Histone methyltransferase assays were performed in 96-well half-area optiplates (PerkinElmer) at room temperature. All concentrations are final unless noted otherwise. Compounds were serially diluted in DMSO and the final DMSO concentration was 1%. A 24 μL reaction mixture contained compound, enzyme, 200 nM of nucleosome or histone substrate, 400 nM ^3H-SAM (83.1 Ci/mmol), 50 mM Tris-HCl (pH 8.0), 50 mM NaCl, 5 mM MgCl2, 1 mM DTT, and 0.01% Tween-20. The plate was sealed, mixed on a Titramax plate shaker at 1200 rpm for 30 sec, and incubated at room temperature for 60 min. The reaction was quenched by addition of 24 μL mixture containing 5 mg/mL PVT-PEI beads and 300 μM unlabeled SAM in water. The plate was sealed, mixed as previously noted, incubated overnight, and read on a TopCount plate reader (PerkinElmer).
as §1

NSD2 = molecular target: T3, NSD2 (Homo sapiens, UniProt O96028); assay: Histone methyltransferase enzymatic assay, NSD2; format: biochemical; conditions: enzyme conc. 10 nM
T3 construct: Full Length; purchased RBC (read as Reaction Biology Corporation, named)
Method: as §2, §1

SET7/9 = molecular target: T4, SET7/9 (Homo sapiens, UniProt Q8WTS6); assay: Histone methyltransferase enzymatic assay, SET7/9; format: biochemical; conditions: enzyme conc. 100 nM
T4 construct: 2-366; purchased RBC (read as Reaction Biology Corporation, named)
Method: as §2, §1

KDM5A = molecular target: T5, KDM5A (Homo sapiens, UniProt P29375); assay: KDM5A enzymatic assay (CisBio HTRF); format: biochemical
T5 construct: purchased Reaction Biology Corp (assay run there as a contract service)
T5 sequence (P29375 whole entry): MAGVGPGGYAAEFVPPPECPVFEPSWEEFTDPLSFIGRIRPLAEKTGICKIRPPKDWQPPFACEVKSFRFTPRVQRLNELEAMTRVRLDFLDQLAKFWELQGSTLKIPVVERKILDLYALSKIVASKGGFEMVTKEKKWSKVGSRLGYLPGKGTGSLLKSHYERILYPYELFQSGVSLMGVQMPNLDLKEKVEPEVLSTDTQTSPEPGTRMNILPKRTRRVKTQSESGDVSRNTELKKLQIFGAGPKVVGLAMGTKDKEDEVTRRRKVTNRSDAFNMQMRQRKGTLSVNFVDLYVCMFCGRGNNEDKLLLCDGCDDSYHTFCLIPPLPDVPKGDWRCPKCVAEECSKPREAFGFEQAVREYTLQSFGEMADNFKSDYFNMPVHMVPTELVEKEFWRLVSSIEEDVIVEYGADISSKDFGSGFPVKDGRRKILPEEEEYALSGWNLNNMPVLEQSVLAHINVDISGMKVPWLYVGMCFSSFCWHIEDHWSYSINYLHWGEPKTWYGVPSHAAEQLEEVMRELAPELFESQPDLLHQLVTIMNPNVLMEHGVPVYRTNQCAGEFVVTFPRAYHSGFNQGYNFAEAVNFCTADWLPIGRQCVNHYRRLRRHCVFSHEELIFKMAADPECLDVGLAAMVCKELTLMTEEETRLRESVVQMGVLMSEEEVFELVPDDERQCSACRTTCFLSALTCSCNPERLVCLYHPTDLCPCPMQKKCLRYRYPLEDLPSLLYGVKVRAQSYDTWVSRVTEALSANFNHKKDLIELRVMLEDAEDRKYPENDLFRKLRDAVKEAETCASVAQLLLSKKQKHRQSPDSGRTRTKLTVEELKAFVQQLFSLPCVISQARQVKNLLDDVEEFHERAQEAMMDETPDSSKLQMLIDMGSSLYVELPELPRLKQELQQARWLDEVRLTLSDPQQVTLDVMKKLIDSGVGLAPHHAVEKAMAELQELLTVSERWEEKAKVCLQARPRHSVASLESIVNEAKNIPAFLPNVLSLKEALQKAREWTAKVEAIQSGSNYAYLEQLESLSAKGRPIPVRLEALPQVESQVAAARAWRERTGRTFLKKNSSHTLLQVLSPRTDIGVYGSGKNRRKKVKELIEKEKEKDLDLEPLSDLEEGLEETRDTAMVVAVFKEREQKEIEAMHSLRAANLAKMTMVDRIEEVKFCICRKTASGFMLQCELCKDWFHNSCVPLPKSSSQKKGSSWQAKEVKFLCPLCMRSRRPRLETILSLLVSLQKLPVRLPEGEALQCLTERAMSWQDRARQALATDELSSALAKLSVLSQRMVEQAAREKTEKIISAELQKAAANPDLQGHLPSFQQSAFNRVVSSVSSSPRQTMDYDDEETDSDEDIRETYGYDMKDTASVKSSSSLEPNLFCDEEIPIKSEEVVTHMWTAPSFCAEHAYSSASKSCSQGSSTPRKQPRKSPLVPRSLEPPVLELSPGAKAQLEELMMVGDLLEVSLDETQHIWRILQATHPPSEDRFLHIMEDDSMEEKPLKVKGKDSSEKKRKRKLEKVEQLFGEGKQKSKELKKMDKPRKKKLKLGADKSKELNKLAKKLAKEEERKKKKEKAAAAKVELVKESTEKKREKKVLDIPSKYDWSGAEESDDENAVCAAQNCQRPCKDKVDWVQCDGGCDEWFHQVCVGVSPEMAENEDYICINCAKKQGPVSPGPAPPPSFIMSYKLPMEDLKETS
Method: KDM5A and 5B were tested using CisBio HTRF assay platform by Reaction Biology Corp (Malvern, PA). All concentrations are final unless noted otherwise. Inhibitors were pre-incubated with 2.5 nM KDM5A or 1.2 nM KDM5B in a 5 μL reaction mixture containing 50 mM HEPES (pH 7.5), 50 mM NaCl, 0.01% Tween 20, 0.01% BSA for 15 min temperature. The reaction was initiated by addition of 5 μL of 50 nM Biotin-H3K4me3 and incubated with gentle shaking for 45 min at RT. The reaction was quenched with 10 mM EDTA and 200 mM potassium fluoride. Upon addition of Eu-Antibody and Streptavidine-XL665, the mixture was incubated for 2 hours in the dark. The fluorescence resonance energy transfer was measured using an excitation wavelength of 320 nm and emission wavelength of 665 nm on an Envision plate reader (Perkin Elmer).
as §1

PRMT5/MEP50 = PRMT5/MEP50 (Homo sapiens, UniProt O14744); assay: Histone methyltransferase enzymatic assay, PRMT5/MEP50; format: biochemical; conditions: enzyme conc. 100 nM
Chain of PRMT5/MEP50 (O14744 2-637): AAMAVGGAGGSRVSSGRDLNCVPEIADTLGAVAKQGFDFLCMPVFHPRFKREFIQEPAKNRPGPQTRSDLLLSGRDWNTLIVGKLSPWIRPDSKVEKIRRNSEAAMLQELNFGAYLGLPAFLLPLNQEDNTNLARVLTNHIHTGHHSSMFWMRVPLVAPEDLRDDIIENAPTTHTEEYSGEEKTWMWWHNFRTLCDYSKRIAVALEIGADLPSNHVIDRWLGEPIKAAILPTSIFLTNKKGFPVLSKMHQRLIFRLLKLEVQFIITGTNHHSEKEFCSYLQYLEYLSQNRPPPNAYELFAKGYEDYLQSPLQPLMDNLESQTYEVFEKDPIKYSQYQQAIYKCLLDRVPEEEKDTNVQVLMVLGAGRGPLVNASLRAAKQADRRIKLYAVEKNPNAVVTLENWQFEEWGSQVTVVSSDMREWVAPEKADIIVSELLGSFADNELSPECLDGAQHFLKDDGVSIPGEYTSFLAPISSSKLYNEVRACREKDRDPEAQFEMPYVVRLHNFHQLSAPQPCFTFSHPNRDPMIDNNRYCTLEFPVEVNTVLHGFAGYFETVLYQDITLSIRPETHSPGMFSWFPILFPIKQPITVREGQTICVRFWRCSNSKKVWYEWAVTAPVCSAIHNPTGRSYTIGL
Chain of PRMT5/MEP50 (Q9BQA1 3-342 partner limits assumed): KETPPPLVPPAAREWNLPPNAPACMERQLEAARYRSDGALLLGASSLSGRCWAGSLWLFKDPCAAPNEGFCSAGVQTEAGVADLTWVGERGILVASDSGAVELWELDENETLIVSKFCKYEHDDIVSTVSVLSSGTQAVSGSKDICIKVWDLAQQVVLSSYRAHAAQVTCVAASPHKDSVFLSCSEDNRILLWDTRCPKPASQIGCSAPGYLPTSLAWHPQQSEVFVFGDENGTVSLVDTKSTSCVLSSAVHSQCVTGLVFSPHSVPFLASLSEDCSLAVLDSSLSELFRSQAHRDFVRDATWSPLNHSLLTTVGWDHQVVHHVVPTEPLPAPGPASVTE
Method: as §2, §1

KDM6B = KDM6B (Homo sapiens, UniProt O15054); assay: KDM6B enzymatic assay (AlphaLISA); format: biochemical
Chain of KDM6B (O15054 whole entry): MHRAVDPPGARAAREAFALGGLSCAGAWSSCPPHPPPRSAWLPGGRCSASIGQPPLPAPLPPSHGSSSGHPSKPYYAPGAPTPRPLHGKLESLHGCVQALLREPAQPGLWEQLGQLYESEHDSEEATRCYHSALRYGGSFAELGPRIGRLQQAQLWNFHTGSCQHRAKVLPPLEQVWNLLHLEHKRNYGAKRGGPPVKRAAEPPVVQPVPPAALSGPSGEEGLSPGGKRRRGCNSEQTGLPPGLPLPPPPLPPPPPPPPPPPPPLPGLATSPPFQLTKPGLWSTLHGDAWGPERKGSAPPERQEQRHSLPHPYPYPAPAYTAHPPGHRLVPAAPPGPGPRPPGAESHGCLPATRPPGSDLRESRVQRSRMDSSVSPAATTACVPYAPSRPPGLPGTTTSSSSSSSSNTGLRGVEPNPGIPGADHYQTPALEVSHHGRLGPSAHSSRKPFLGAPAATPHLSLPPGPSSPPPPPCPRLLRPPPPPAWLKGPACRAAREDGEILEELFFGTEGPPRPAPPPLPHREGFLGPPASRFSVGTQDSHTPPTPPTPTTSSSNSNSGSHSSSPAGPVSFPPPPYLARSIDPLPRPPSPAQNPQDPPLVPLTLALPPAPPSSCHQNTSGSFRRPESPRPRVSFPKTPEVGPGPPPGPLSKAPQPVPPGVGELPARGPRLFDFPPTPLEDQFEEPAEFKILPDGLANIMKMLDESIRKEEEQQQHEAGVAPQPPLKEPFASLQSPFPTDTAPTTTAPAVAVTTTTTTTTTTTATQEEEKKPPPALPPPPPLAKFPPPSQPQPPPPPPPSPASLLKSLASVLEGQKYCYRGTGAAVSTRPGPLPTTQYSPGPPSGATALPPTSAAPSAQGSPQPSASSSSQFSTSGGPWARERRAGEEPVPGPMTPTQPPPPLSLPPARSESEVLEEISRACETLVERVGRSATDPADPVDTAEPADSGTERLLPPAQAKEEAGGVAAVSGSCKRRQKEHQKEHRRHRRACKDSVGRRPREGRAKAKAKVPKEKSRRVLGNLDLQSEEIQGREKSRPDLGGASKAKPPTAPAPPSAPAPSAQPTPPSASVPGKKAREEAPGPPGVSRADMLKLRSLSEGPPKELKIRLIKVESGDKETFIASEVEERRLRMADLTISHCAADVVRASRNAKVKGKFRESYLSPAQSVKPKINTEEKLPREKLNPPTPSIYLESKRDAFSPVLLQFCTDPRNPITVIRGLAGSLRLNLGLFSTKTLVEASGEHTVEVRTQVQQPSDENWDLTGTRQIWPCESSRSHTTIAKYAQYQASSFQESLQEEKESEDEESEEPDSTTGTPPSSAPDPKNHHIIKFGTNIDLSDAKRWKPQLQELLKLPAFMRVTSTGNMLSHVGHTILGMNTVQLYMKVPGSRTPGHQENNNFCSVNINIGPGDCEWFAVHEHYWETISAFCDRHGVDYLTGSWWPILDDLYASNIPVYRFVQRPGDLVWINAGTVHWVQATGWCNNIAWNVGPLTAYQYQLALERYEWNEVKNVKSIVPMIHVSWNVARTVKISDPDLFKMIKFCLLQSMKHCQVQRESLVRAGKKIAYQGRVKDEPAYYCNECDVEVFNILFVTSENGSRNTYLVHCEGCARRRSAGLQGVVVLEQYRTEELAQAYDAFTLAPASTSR
Method: The following assay protocol was used for all histone demethylases tested except KDM1A, KDM5A, B, and D, which are described below. Compounds were serially diluted into a 384-well Alpha plate as a DMSO solution and mixed with 5 μL reaction buffer (buffer A) containing 50 mM HEPES (pH 7.0), 0.1% BSA, and 0.003% Tween-20. The enzyme of interest was pre-incubated with 15 μM of Fe^2+ for 10 min (except 30 min for KDM2B) in reaction buffer A. 5 μL of the enzyme mixture was added to each of the compound-containing wells and incubated for 10 min. The reaction was started by addition of a 5 μL mixture containing 300 nM peptide substrate, 75 μM L-ascorbic acid, and 30 μM α-ketoglutarate in buffer A. This final 15 μL of reaction mixture was incubated for 20 min for KDM5B and 1 hour for the other KDM enzymes. The reaction was quenched with 10 μL of diluted AlphaLISA Acceptor beads (1:400) in Epigenetics Buffer and incubated for 60 min. The Donor beads were diluted 1:400 into Epigenetics Buffer in the dark and 10 μL of this was added to each well and incubated for another 60 min in the dark. The assay plates were read on an Enspire plate reader (PerkinElmer) using a standard AlphaLISA program.
as §1

H3K4 methylation = assay: Histone mass spectrometry of H3K4 methylation in PHH; format: cell-based, human; conditions: uninfected PHH; 10 μM every 3 days; Day 7
Method: Approximately 25 million PHH from Donor (Bioreclamation) were plated on collagen coated (Coating Matrix kit, Life Technologies, Cat. #R-011-K) plates (coated for 30 minutes at 37°C and subsequently washed twice with PHH plating medium). The PHH plating medium was removed after 16 hours and replaced with PHH maintenance medium (Day 0). […] Modifications to the manufacturer’s protocol included two PBS washes prior to adding the histone extraction buffer to the cells, precipitation of eluted histones in 8% perchloric acid, and a single wash in cold acetone containing 0.2% HCl.
Fresh 1:100 propionic anhydride:water reagent was prepared and 1 μl of mixture was added immediately to the histone sample with vortexing and incubated for 5 minutes at 25°C. The reaction was quenched with 1 μl of 80 mM hydroxylamine for 20 minutes at 25°C. […]
1 μl of sample was injected using a Thermo Fischer Scientific Ultimate 3000 Autosampler (San Jose, CA) onto a 15 cm x 75 μm Thermo Fischer Scientific ES812 Easyspray nano column with 5 μm particle size. […] Each sample was analyzed three times.
Data was searched using Thermo Fischer Scientific Proteome Discoverer V2.1 software. […] The ratio of drug treated/control was calculated for each sample and then corrected using the average protein level ratio to account for differences in total protein between control and treated samples.

Tolerability in rats = format: in vivo; conditions: GS-5801 doses tested (0.3-30 mg/kg p.o. once daily for five days)
Method: Animals were sacrificed 24 hours post final dose and approximately 100 mg of liver (left lateral lobe), lung, and kidney tissue was collected. Additionally, one mL of venous blood for PBMC isolation was collected into K2EDTA vacutainer tubes (Thermo Fisher; BD367835). […] Diluted whole blood was layered onto an equal volume of HISTOPAQUE-1077 (Sigma; 10771) gradient medium and centrifuged at 400 x g for 30 minutes with the centrifuge brake switch off. PBMCs were collected at the plasma-HISTOPAQUE-1077 interface and washed three times with DPBS by centrifugation at 500 x g for 10 minutes. Tissue samples and PBMCs were snap frozen using liquid nitrogen and stored at -80°C for subsequent H3K4me3:H3 analysis by ELISA.

T1 sequence (Q96EB6 193-741): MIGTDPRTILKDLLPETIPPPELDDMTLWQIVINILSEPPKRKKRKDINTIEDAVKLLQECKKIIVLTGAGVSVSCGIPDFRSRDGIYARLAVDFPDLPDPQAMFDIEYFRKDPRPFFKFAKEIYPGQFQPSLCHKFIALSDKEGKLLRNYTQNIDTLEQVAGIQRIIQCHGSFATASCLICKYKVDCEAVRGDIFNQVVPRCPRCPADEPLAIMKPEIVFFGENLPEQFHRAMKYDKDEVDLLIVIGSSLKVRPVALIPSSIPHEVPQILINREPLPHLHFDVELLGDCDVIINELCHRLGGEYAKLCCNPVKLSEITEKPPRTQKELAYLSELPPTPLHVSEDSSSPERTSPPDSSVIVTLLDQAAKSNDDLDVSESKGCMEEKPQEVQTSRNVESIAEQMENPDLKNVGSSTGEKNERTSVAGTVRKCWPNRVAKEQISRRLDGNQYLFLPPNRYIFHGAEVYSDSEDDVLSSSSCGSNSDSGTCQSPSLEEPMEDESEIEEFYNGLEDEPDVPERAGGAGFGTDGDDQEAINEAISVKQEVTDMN

CCN(CCN(C)C)C(=O)CNCc1cc(C(=O)O)ccn1 [GS-080]
IC50 (SIRT-1): > 100 µM
IC50 (SETDB1): > 100 µM
IC50 (NSD2): > 100 µM
IC50 (SET7/9): > 100 µM
Fold Selectivity Compared to KDM5A (KDM5A; IC50 of KDM5A over KDM5A): 1 fold
IC50 (KDM5A; enzyme concentration 2.5 nM, IC50 lower than enzyme concentration, likely underestimates potency): 0.00036 µM
IC50 (PRMT5/MEP50): > 100 µM
Fold Selectivity Compared to KDM5A (KDM6B; IC50 of KDM6B over KDM5A): > 17,200 fold
IC50 (KDM6B; enzyme concentration 1 nM, read-out: IC50): 6.2 µM

CCOC(=O)c1ccnc(CNCC(=O)N(CC)CCN(C)C)c1 [GS-5801]
change in H3K4 methylation species by quantitative mass spectrometry (H3K4 methylation): predominantly caused an increase in trimethylated H3K4 (H3K4me3)
adverse effects (Tolerability in rats): no adverse effects were observed
